Results on 61 molecules are retold here after a melting point compilation (Tetko et al.; mined from patent text by program, amines drawn as free bases though some values may be those of a salt).

Each structure is given as a SMILES string. Bounds are passed on as bounds.

`Cn1cc(-c2ccc3nc(NC(=O)c4ccc(C(C)(C)C)nc4)cn3n2)cn1` registered a melting point of 251 to 252 °C.

In turn, `Oc1ccc(C=Cc2cccc(O)c2)cc1` returned a melting point of 213 to 214 °C.

Regarding `O=C(CN1C(=O)C(NC(=O)n2ccnc2)N=C(c2ccccc2F)c2ccccc21)N1CC2CCC(CC2)C1` (racemic), the melting point lay in the range of 235 to 237 °C.

With `COCc1c(Cl)nnc(Cl)c1OC`, the melting point is 28 to 32 °C. `COc1ccc(C(=O)Nc2ccccc2)cc1NC(=S)Nc1c(F)c(F)cc(F)c1F` returned a melting point of 170 to 174 °C. As for `CC(=O)OCc1ccc(Sc2ccccc2C(=O)O)c([N+](=O)[O-])c1`, the figure is 150 to 151 °C; as for `ICCC(c1ccccc1)c1ccccc1`, 51 to 55 °C; as for `CC(C)C[C@@H](CC=O)NC(=O)[C@H](Cc1c[nH]cn1)NC(=O)[C@H](Cc1cccc2ccccc12)NC(=O)OCc1ccccc1`, 153 to 156 °C. Take `CC(C)Cn1c(=O)n(C)c(=O)c2c(C/C=C/CC(=O)O)n(Cc3cccc4ccccc34)cc21`: the melting point fell in the range of 176 to 180 °C.

With `CON1CCC2(CC1)NC(=O)C(c1cc(-c3ccc(Cl)cc3)c(F)cc1C)=C2OC(=O)C(C)(C)C`, the melting point lay in the range of 150 to 151 °C. `CC(=O)C(=Cc1ccc(S(C)(=O)=O)c(Br)c1)C(C)=O` showed a melting point of 135 to 139 °C. In the case of `CC(C)Cn1c(=O)n(C)c(=O)c2c(SCCCC(=O)O)c(Cc3cccc4ccccc34)sc21`, the melting point lay in the range of 172 to 173 °C. In the case of `c1ccc2cc(Cc3nc4cc(CCC5OCCO5)ccc4o3)ccc2c1`, the melting point was 85 to 86 °C. Regarding `C=C(ON1C(=O)[C@@H](NC(=O)OC(C)(C)C)[C@@H]1C)C(=O)O`, the melting point is 127 to 130 °C. As for `O=C1CCCC2=C1C(c1ccc(F)c(Cl)c1)C1=C(CCS1)N2` (stereo unspecified), the figure is greater than 250 °C; as for `CCOC(=O)CCCOc1ccc(C(N)=O)c(OCC2CCCCC2)c1`, 98 to 99 °C; as for `Cc1ccc(N2C(=O)C(O)=C(C(=NOCC(=O)O)c3ccc(C(C)C)cc3)C2c2ccc(OC(F)(F)F)cc2)nn1` (stereo unspecified), 227 °C.

In the case of `CN(CCOc1ccc2ccc(N)nc2n1)C(=O)OC(C)(C)C`, the melting point stood at 170 °C. `O=C(O)COc1cc(Cl)c2c(c1)OCC(c1ccccc1)C2=O` (stereo unspecified) showed a melting point of 171 to 173 °C. Take `CCC(=O)N(CCc1ccccc1)C1CCc2c(cccc2NC(C)=O)C1` (stereo unspecified): the melting point lay in the range of 143 to 145 °C. The molecule `CSc1ccc(Oc2ccc([N+](=O)[O-])cc2)c(C)c1` returned a melting point of 81.6 to 84.4 °C.

On to `CCOc1cccnc1CO`, for which the melting point was 74.5 to 76 °C.

The molecule `COC(=O)c1cc(C#Cc2cnc3nc(NC(=O)C(C)(C)C)nc(O)c3c2)cn1[Si](C(C)C)(C(C)C)C(C)C` gave a melting point of 163 to 165 °C.

`Cc1nn(-c2c(Cl)cc(C(F)(F)F)cc2Cl)c(N)c1SC(Cl)(Cl)Cl` came in with a melting point of 156 °C. The molecule `Cc1c(C(=O)Nc2ccc(N3CCC(N4CCOCC4)CC3)c(C#N)c2)cnn1-c1ccccc1Cl` gave a melting point of 218 °C. As for `CC(=C1SC(=O)NC1=O)c1ccc(OCCOc2c(-c3ccc(Cl)cc3)n(C)c3ccccc3c2=O)cc1`, the melting point was 238 to 240 °C.

`CCCCCCCCCCCCCCCCCCNCC(O)CO` (stereo unspecified): the melting point was 81 to 83 °C. Turning to `O=C1Nc2ccccc2N(CCCCCCN2CCCCC2)c2ccccc21`, the melting point lay in the range of 124 to 125 °C. Regarding `O=c1[nH]c(Cl)nc2c1ncn2COCCO`, the melting point was greater than 310 °C. `COc1ccc2c(c1)c(Cc1nc3c(F)c(F)cc(F)c3s1)cn2CC(=O)O`: the melting point lay in the range of 165 to 167 °C. Turning to `O=S(=O)(CC=C1CCCC1)c1ccccc1`, the melting point amounted to 68 °C. The molecule `CC(=O)N1CCN=C1C(O)(c1ccccc1)c1ccccn1` (stereo unspecified) gave a melting point of 150 to 153 °C. The molecule `COc1cc(OC)nc(-n2c(C(F)(F)F)nc3cc(C)ccc32)n1` returned a melting point of 93 to 96 °C.

On to `O=C1c2ccccc2C(=O)c2c1cccc2N1CCC(O)CC1`, for which the melting point was found to be 145 °C. The result for `Cc1cc(CC(C)(C)C=O)cc(C)c1O` reads 72 to 73 °C; that for `CCOC(=O)CN1C(=O)C(=S2CN(CC)c3ccccc32)SC1=S` (stereo unspecified), 250 to 252 °C; that for `CNC(=C[N+](=O)[O-])NCCSCc1csc(CN2CCCC2)n1`, 119 to 120 °C.

Consider `CC1C(=O)N(c2ccc(S(C)(=O)=O)cc2)N=C1N` (stereo unspecified), for which the melting point lay within 239 to 240 °C. `COc1cc(C(C)C)ccc1C1(NC(=O)OC(C)C)C(=O)c2ccccc2C1=O`: the melting point fell in the range of 159 to 161 °C. For the molecule `CCCOc1c(OCc2ccccc2)cc(C2CCC(c3cc(OC)c(OC)c(OC)c3)O2)cc1S(=O)(=O)CC(C)O` (stereo unspecified), the melting point fell in the range of 103 to 110 °C. On to `Cc1nn(C)c(NC(=O)Nc2ccccc2)c1C1=CCCCC1`, for which the melting point was 203 °C.

Take `OCCOc1ccc(C2CNCCN2)cc1` (racemic): the melting point came out at 141 °C.

Turning to `CC1(C)CCC(C)(C)c2cc(-c3cc(-c4ccc(C(=O)O)cc4)ccc3-c3cccc(O)c3)ccc21`, the melting point was less than 70 °C. `COC(=O)c1ccc2oc3c(c(=O)c2c1)CCC3=Cc1cccc(C)n1`: the melting point lay within 200 to 202 °C.

The molecule `CCCOc1nc2ccccc2c2c1CNC2=O` gave a melting point of 170 to 171 °C. `CCn1c(=O)n(O)c(=O)c2cc(F)c(N3CCCC3)cc21` yielded a melting point of 170 to 171 °C.

With `Cc1c(O)cccc1C1=N[C@H]([C@H](O)CN2C[C@H]3CCCC[C@H]3C[C@H]2C(=O)NC(C)(C)C)CO1`, the melting point was 240 °C.

In turn, `CCCCCC(C)C(C)c1cc(O)c2c3c(c(=O)oc2c1)CSCC3` (stereo unspecified) displayed a melting point of 150 to 152 °C. Take `CN1CCN(Cc2ccccc2Cl)C(C2=NCCO2)C1` (stereo unspecified): the melting point amounted to 96.8 °C.

As to `CP(=O)(O)C(O)C(CN)c1ccc(Cl)cc1` (stereo unspecified), the melting point lay within 240 to 241 °C. `CC(c1nnnn1C)C(O)(c1ccc(F)cc1)c1ccc(F)cc1` (stereo unspecified) showed a melting point of 160 to 161 °C.

The molecule `O=C(CNc1c(C(=O)O)[nH]c2cc(Cl)cc(Cl)c12)c1ccc(F)cc1` came in with a melting point of 259 to 261 °C.

Turning to `COC(=O)c1ccc2ccc3ccccc3c2c1C(=O)OC`, the melting point is 117 °C. `COc1cccc([C@@]23CCN(C)C[C@@H]2Cc2cc4ccccc4nc2C3)c1` displayed a melting point of 154 to 156 °C. `CN(C(=O)N[C@@H](Cc1ccc(NC(=O)c2c(Cl)cccc2Cl)cc1)C(=O)O)c1ccccc1C(=O)NCC1CCCCC1` gave a melting point of 201 °C. Take `N#Cc1cc(C(=O)NNC(=O)c2occc2-c2ccccc2)ccc1O`: the melting point is 216 to 217 °C. `Cn1nc(-c2c(Cl)cccc2Cl)nc1Cc1ccc(Cl)cc1` gave a melting point of 112 to 115 °C. `CCOC(=O)CNc1ncccc1NC(=O)c1ccc(Cl)c(Cl)c1`: the melting point is 137 to 138 °C. As for `COc1c(N2CCC(N)C(C)C2)c(F)cc2c(=O)c(C(=O)O)cn(C3CC3)c12` (stereo unspecified), the figure is 240 to 242 °C; as for `COCc1ccc(C(=O)N[C@H](Cc2ccc(C(F)(F)F)cc2)[C@@H](O)c2ccc(F)cc2)c2ccccc12` (racemic), 170 to 171 °C. `COC(=O)C[C@H](O)CC(=O)C=Cc1c(-c2ccc(F)cc2)c(-c2ccccc2)c(C(=O)Nc2cccc(S(N)(=O)=O)c2)n1C(C)C`: the melting point fell in the range of 89 to 91 °C.

In general, melting point refers to the temperature, or range, at which the solid turns liquid.
